Results as given in ChEMBL document CHEMBL1909046, “DrugMatrix in vitro pharmacology data”.

Experiments:
[1] = target: cGMP-specific 3',5'-cyclic phosphodiesterase (Homo sapiens, UniProt O76074); assay: DRUGMATRIX: Phosphodiesterase PDE5 enzyme inhibition (substrate: [3H]cGMP + cGMP); type: tissue-based; settings: platelet; Not Active = under 50% inhibition at 10 µM
Melanocortin receptor 4 = Melanocortin receptor 4 (Homo sapiens, UniProt P32245); type: cell membranes, Membrane; settings: hek293; also: in other assays of this panel Not Active means under 50% inhibition at 10 µM
Melanocortin receptor 4, sequence (P32245 whole entry): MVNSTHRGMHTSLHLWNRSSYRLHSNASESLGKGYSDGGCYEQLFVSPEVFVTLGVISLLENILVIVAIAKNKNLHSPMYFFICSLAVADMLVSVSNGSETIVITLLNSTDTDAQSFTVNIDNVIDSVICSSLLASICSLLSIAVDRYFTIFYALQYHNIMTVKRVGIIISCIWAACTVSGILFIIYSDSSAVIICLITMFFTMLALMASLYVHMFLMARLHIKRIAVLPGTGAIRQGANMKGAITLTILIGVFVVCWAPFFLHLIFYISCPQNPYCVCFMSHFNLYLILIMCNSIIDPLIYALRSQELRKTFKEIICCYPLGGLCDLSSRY

[2] = target: T1, Muscarinic acetylcholine receptor M2 (Homo sapiens, UniProt P08172); type: cell membranes, CHO-K1, Membrane; settings: cho-k1; also: in other assays of this panel Not Active means under 50% inhibition at 10 µM
T1 sequence (P08172 whole entry): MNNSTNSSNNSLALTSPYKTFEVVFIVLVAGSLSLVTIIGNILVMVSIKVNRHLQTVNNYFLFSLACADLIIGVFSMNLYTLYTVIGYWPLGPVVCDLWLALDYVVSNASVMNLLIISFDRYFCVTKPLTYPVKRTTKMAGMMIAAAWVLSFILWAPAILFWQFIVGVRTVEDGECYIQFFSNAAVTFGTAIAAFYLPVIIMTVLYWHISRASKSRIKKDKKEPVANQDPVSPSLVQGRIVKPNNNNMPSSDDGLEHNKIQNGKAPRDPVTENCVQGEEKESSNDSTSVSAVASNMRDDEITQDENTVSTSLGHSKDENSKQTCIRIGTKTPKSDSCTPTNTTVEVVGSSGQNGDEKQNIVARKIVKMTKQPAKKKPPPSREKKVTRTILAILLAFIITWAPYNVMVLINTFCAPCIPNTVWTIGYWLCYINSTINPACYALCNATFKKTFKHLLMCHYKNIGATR

[3] = target: Mitogen-activated protein kinase 1 (Homo sapiens, UniProt P28482); assay: DRUGMATRIX: Protein Serine/Threonine Kinase, ERK2 enzyme inhibition (substrate: Myelin Basic Protein); parameters: species or system Escherichia coli; settings: Not Active = under 50% inhibition at 10 µM
Mitogen-activated protein kinase 1, sequence (P28482 whole entry): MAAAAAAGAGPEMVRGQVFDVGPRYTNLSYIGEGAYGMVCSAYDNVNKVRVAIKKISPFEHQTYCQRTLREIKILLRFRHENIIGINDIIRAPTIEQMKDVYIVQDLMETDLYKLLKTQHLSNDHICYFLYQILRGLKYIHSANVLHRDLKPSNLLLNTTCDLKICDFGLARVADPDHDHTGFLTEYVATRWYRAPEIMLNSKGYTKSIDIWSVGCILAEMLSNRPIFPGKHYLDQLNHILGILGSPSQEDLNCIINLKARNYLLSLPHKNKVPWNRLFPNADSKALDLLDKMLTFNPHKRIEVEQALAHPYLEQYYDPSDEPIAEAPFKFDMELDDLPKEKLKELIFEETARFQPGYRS

Cathepsin G = target: T2, Cathepsin G (Homo sapiens, UniProt P08311); type: tissue-based; settings: neutrophil;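 also: inhibition of Cathepsin G enzyme activity, tested on an AMC-conjugated peptide substrate; in other assays of this panel Not Active means under 50% inhibition at 10 µM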
T2 sequence (P08311 whole entry): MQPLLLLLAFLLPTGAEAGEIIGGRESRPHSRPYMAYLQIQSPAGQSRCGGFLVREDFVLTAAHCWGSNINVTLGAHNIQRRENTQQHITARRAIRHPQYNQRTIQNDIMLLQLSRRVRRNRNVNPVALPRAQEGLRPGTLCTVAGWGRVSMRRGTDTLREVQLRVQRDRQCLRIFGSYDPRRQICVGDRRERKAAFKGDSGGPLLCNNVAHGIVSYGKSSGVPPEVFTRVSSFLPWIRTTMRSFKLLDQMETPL

D(1A) dopamine receptor = D(1A) dopamine receptor (Homo sapiens, UniProt P21728); assay: DRUGMATRIX: Dopamine D1 radioligand binding (ligand: [3H] SCH-23390); type: cell membranes, CHO, Membrane; settings: cho; Not Active = under 50% inhibition at 10 µM
D(1A) dopamine receptor, sequence (P21728 whole entry): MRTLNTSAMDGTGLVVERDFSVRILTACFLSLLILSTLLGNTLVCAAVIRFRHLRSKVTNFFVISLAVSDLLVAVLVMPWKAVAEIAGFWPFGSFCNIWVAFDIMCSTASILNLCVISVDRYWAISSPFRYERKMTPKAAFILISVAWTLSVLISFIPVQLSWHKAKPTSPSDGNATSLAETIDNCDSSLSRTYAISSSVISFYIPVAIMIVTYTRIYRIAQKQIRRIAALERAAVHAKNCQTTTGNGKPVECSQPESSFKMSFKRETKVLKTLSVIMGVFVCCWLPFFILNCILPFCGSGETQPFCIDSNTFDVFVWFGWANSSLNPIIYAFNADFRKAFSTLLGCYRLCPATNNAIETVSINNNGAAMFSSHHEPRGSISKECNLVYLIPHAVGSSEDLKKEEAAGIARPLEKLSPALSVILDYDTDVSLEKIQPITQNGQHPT

Cytochrome P450 2D6 = Cytochrome P450 2D6 (Homo sapiens, UniProt P10635); settings: bti-tn-5b1-4; also: in other assays of this panel Not Active means under 50% inhibition at 10 µM
Cytochrome P450 2D6, sequence (P10635 whole entry): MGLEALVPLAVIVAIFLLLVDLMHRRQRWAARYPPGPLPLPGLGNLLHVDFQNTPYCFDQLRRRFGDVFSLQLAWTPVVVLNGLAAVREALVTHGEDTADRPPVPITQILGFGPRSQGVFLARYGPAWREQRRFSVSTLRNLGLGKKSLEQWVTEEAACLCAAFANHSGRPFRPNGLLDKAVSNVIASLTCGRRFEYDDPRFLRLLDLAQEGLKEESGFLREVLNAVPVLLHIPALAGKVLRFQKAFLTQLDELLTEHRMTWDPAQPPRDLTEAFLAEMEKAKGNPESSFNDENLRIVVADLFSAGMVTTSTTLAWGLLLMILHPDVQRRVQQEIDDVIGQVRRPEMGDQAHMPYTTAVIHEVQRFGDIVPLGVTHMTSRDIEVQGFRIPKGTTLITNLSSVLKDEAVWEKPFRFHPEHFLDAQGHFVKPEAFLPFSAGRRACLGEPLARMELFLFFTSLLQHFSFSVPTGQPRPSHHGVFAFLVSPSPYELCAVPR

OCCO [ETHYLENE GLYCOL]
Not Active: IC50 [1] | IC50 (Melanocortin receptor 4) | IC50 [2] | IC50 [3] | IC50 (Cathepsin G) | IC50 (D(1A) dopamine receptor) | IC50 (Cytochrome P450 2D6) | Ki (Cytochrome P450 2D6)

CC(=O)OCC(CCn1cnc2cnc(N)nc21)COC(C)=O [FAMCICLOVIR]
Not Active: IC50 [1] | IC50 (Melanocortin receptor 4) | IC50 [2] | IC50 [3] | IC50 (Cathepsin G) | IC50 (D(1A) dopamine receptor) | IC50 (Cytochrome P450 2D6) | Ki (Cytochrome P450 2D6)

O=C(O)Cc1ccc(-c2ccccc2)cc1 [FELBINAC]
Not Active: IC50 [1] | IC50 (Melanocortin receptor 4) | IC50 [2] | IC50 [3] | IC50 (Cathepsin G) | IC50 (D(1A) dopamine receptor) | IC50 (Cytochrome P450 2D6) | Ki (Cytochrome P450 2D6)

CC(C(=O)O)c1ccc(-c2ccccc2)c(F)c1 (stereo not drawn) [FLURBIPROFEN]
Not Active: IC50 [1] | IC50 (Melanocortin receptor 4) | IC50 [2] | IC50 [3] | IC50 (Cathepsin G) | IC50 (D(1A) dopamine receptor) | IC50 (Cytochrome P450 2D6) | Ki (Cytochrome P450 2D6)

NC[C@@H]1O[C@H](O[C@H]2[C@@H](O)[C@H](O[C@@H]3[C@@H](O)[C@H](N)C[C@H](N)[C@H]3O[C@H]3O[C@H](CN)[C@@H](O)[C@H](O)[C@H]3N)O[C@@H]2CO)[C@H](N)[C@@H](O)[C@@H]1O [FRAMYCETIN]
Not Active: IC50 [1] | IC50 (Melanocortin receptor 4) | IC50 [2] | IC50 [3] | IC50 (Cathepsin G) | IC50 (D(1A) dopamine receptor) | IC50 (Cytochrome P450 2D6) | Ki (Cytochrome P450 2D6)

C[C@H]([C@](O)(Cn1cncn1)c1ccc(F)cc1F)S(C)(=O)=O [GENACONAZOLE]
Not Active: IC50 [1] | IC50 (Melanocortin receptor 4) | IC50 [2] | IC50 [3] | IC50 (Cathepsin G) | IC50 (D(1A) dopamine receptor) | IC50 (Cytochrome P450 2D6) | Ki (Cytochrome P450 2D6)

Cc1c(F)c(N2CCNC(C)C2)cc2c1c(=O)c(C(=O)O)cn2C1CC1 (stereo not drawn) [GREPAFLOXACIN]
Not Active: IC50 [1] | IC50 (Melanocortin receptor 4) | IC50 [2] | IC50 [3] | IC50 (Cathepsin G) | IC50 (D(1A) dopamine receptor) | IC50 (Cytochrome P450 2D6) | Ki (Cytochrome P450 2D6)

N=C(N)N/N=C/c1c(Cl)cccc1Cl [GUANABENZ]
Not Active: IC50 [1] | IC50 (Melanocortin receptor 4) | IC50 [2] | IC50 [3] | IC50 (Cathepsin G) | IC50 (D(1A) dopamine receptor) | IC50 (Cytochrome P450 2D6) | Ki (Cytochrome P450 2D6)

C[C@]12CCC(=O)C=C1CC[C@@H]1[C@@H]2[C@@H](O)C[C@@]2(C)[C@H]1CC[C@]2(O)C(=O)CO [HYDROCORTISONE]
Not Active: IC50 [1] | IC50 (Melanocortin receptor 4) | IC50 [2] | IC50 [3] | IC50 (Cathepsin G) | IC50 (D(1A) dopamine receptor) | IC50 (Cytochrome P450 2D6) | Ki (Cytochrome P450 2D6)

NC[C@H]1O[C@H](O[C@H]2[C@H](O)[C@@H](O[C@H]3O[C@H](CO)[C@@H](O)[C@H](N)[C@H]3O)[C@H](N)C[C@@H]2N)[C@H](O)[C@@H](O)[C@@H]1O [KANAMYCIN]
Not Active: IC50 [1] | IC50 (Melanocortin receptor 4) | IC50 [2] | IC50 [3] | IC50 (Cathepsin G) | IC50 (D(1A) dopamine receptor) | IC50 (Cytochrome P450 2D6) | Ki (Cytochrome P450 2D6)

CC[C@H](C)C(=O)O[C@H]1C[C@@H](C)C=C2C=C[C@H](C)[C@H](CC[C@@H]3C[C@@H](O)CC(=O)O3)[C@H]21 [LOVASTATIN]
Not Active: IC50 [1] | IC50 (Melanocortin receptor 4) | IC50 [2] | IC50 [3] | IC50 (Cathepsin G) | IC50 (D(1A) dopamine receptor) | IC50 (Cytochrome P450 2D6) | Ki (Cytochrome P450 2D6)

CC(C(=O)O)c1ccc(CC2CCCC2=O)cc1 (stereo not drawn) [LOXOPROFEN]
Not Active: IC50 [1] | IC50 (Melanocortin receptor 4) | IC50 [2] | IC50 [3] | IC50 (Cathepsin G) | IC50 (D(1A) dopamine receptor) | IC50 (Cytochrome P450 2D6) | Ki (Cytochrome P450 2D6)

Cc1cccc(Nc2ccccc2C(=O)O)c1C [MEFENAMIC ACID]
Not Active: IC50 [1] | IC50 (Melanocortin receptor 4) | IC50 [2] | IC50 [3] | IC50 (Cathepsin G) | IC50 (D(1A) dopamine receptor) | IC50 (Cytochrome P450 2D6) | Ki (Cytochrome P450 2D6)

CC(=O)O[C@]1(C(C)=O)CC[C@H]2[C@@H]3C=C(C)C4=CC(=O)CC[C@]4(C)[C@H]3CC[C@@]21C [MEGESTROL ACETATE]
Not Active: IC50 [1] | IC50 (Melanocortin receptor 4) | IC50 [2] | IC50 [3] | IC50 (Cathepsin G) | IC50 (D(1A) dopamine receptor) | IC50 (Cytochrome P450 2D6) | Ki (Cytochrome P450 2D6)

COc1ccccc1OCC(O)COC(N)=O (stereo not drawn) [METHOCARBAMOL]
Not Active: IC50 [1] | IC50 (Melanocortin receptor 4) | IC50 [2] | IC50 [3] | IC50 (Cathepsin G) | IC50 (D(1A) dopamine receptor) | IC50 (Cytochrome P450 2D6) | Ki (Cytochrome P450 2D6)

CN(Cc1cnc2nc(N)nc(N)c2n1)c1ccc(C(=O)N[C@@H](CCC(=O)O)C(=O)O)cc1 [METHOTREXATE]
Not Active: IC50 [1] | IC50 (Melanocortin receptor 4) | IC50 [2] | IC50 [3] | IC50 (Cathepsin G) | IC50 (D(1A) dopamine receptor) | IC50 (Cytochrome P450 2D6) | Ki (Cytochrome P450 2D6)

COC(=O)c1ccccc1O [METHYL SALICYLATE]
Not Active: IC50 [1] | IC50 (Melanocortin receptor 4) | IC50 [2] | IC50 [3] | IC50 (Cathepsin G) | IC50 (D(1A) dopamine receptor) | IC50 (Cytochrome P450 2D6) | Ki (Cytochrome P450 2D6)

COc1ccc2cc(CCC(C)=O)ccc2c1 [NABUMETONE]
Not Active: IC50 [1] | IC50 (Melanocortin receptor 4) | IC50 [2] | IC50 [3] | IC50 (Cathepsin G) | IC50 (D(1A) dopamine receptor) | IC50 (Cytochrome P450 2D6) | Ki (Cytochrome P450 2D6)

O=C(O)c1cccnc1 [NIACIN]
Not Active: IC50 [1] | IC50 (Melanocortin receptor 4) | IC50 [2] | IC50 [3] | IC50 (Cathepsin G) | IC50 (D(1A) dopamine receptor) | IC50 (Cytochrome P450 2D6) | Ki (Cytochrome P450 2D6)

CNC(=C[N+](=O)[O-])NCCSCc1csc(CN(C)C)n1 [NIZATIDINE]
Not Active: IC50 [1] | IC50 (Melanocortin receptor 4) | IC50 [2] | IC50 [3] | IC50 (Cathepsin G) | IC50 (D(1A) dopamine receptor) | IC50 (Cytochrome P450 2D6) | Ki (Cytochrome P450 2D6)

C[C@]12C/C(=C/O)C(=O)C[C@@H]1CC[C@@H]1[C@@H]2CC[C@@]2(C)[C@H]1CC[C@]2(C)O [OXYMETHOLONE]
Not Active: IC50 [1] | IC50 (Melanocortin receptor 4) | IC50 [2] | IC50 [3] | IC50 (Cathepsin G) | IC50 (D(1A) dopamine receptor) | IC50 (Cytochrome P450 2D6) | Ki (Cytochrome P450 2D6)
